Assay results as given in patent publication US9598393B2, “Structural variants of mycolactones for use in modulating inflammation, immunity and pain” (priority 2011, dated 2017).
Read-outs that look alike come from different tables or passages of the source.

Assays:
[1] = system: IL-2 production by Jurkat T cells; test: Immunosuppressive activity: activation-induced IL-2 production, ELISA; format: cell-based, human; settings: for Cytokine production (M.A.: mean absorbance) (C) % relative to control / IC50: Jurkat T cells; for Cytokine production (M.A.: mean absorbance) (C) % relative to control: PMA + calcium ionophore, IL-2 ELISA; for IC50: IL-2, % inhibition relative to control, read-out: Cytokine production (C): IC50 value (concentration at which the compound induces 50% of mycolactone maximal activity); for Cytokine production (C): corresponding % of mycolactone activity (in brackets): relative to mycolactone (100%)
Protocol: (C) The immunosuppressive activity of mycolactone and variants was measured on Jurkat T cells (ATCC®; TIB-152™ clone E6-1), as models of human T lymphocytes. Cells were inoculated in 96-well plates (5×10^5 cells/well in RPMI 1640 medium supplemented with 10% fetal calf serum and 2 mM L-Glutamine) then incubated with serial dilutions of the various compounds for 4 h, and stimulated for 20 h with 50 ng/ml phorbol-12-myristate-13-acetate (PMA) and 1 μg/ml calcium ionophore. The production of IL-2 was then assessed in culture supernatants by ELISA.

[2] = system: epithelial HeLa cell line; test: Cytopathic activity, MTT assay (effect on global cell metabolic activity); format: cell-based, human; settings: for Metabolic activity (MA: mean absorbance) (A) % relative to control / IC50: HeLa cells, 48 h, MTT; for IC50: % inhibition relative to control, read-out: Metabolic activity (A): IC50 value (concentration at which the compound induces 50% of mycolactone maximal activity); for Metabolic activity (A): corresponding % of mycolactone activity (in brackets): relative to mycolactone (100%); for cytopathic activity, reduction compared to mycolactones A/B: human
Protocol: (A) The cytopathic activity of mycolactone and variants was assessed in a [3-(4,5-Dimethylthiazol-2-yl)-2,5-Diphenyltetrazolium Bromide] (MTT) assay, using the epithelial HeLa cell line (ATCC®; CCL-2) as a model. Briefly, HeLa cells were plated in 96-well plates (10^4 cells/well) in Dulbecco's Modified Eagle culture medium supplemented with 10% fetal calf serum and 2 mM L-Glutamine. After 16 h, mycolactone or variants dilutions (final concentration 0.4-8 μM) were added to the wells, and incubated with the cells for 48 h, prior to the addition of MTT at 50 μg/ml. After 4 h, culture supernatants were removed and the formed formazan crystals dissolved in dimethyl sulfoxide (DMSO) for absorbance measurement.

[3] = system: CD62-L receptor expression by human peripheral blood cells (PBLs); test: T cell homing: expression of CD62-L receptor, flow cytometry; format: cell-based; settings: for CD62-L expression (MFI: mean fluorescence intensity) (D) % relative to control / IC50: human PBLs, 72 h; for IC50: % inhibition relative to control, read-out: CD62-L expression (D): IC50 value (concentration at which the compound induces 50% of mycolactone maximal activity); for CD62-L expression (D): corresponding % of mycolactone activity (in brackets): relative to mycolactone (100%)
Protocol: (D) The effect of mycolactone and variants on T cell homing was assessed through their inhibitory effect on the expression of CD62-L receptor by human peripheral blood cells (PBLs). Human PBLs were isolated from total blood by Ficoll density gradient centrifugation. They were incubated in 96-well plates (10^5 cells/well in RPMI 1640 medium supplemented with 10% fetal calf serum and 2 mM L-Glutamine) with mycolactone or variant for 72 h. Cells were then fixed for 20 min in 4% paraformaldehyde (PFA) and stained with an anti-CD62-L antibody coupled with phycoerythrin in a solution of PBS, BSA 0.5%, saponin 0.05%, then analysed by flow cytometry.

[4] = system: HeLa cell; test: Cytotoxicity by Trypan Blue dye exclusion (cell viability); format: cell-based, human; settings: for cytotoxicity compared to mycolactones A/B: at 16 μM
Protocol: (B) HeLa cell death being negligible in the concentration and time frame conditions used in (A), the cytotoxicity of 16 μM mycolactone and variants was evaluated after 48 h of incubation by cell exclusion of the Trypan Blue dye. Here, one part of Trypan blue (0.4% in phosphate-buffered saline PBS) was mixed with one part cell suspension (recovered from cell culture wells by trypsin treatment). The mixture was incubated for 3 min at room temperature and unstained (viable) and stained (nonviable) cells counted separately with a hemacytometer.

Compound	Cytokine production (M.A.: mean absorbance) (C) % relative to control ([1]; 0.4 μM)	Cytokine production (M.A.: mean absorbance) (C) % relative to control ([1]; 4 μM)	Cytokine production (M.A.: mean absorbance) (C) % relative to control ([1]; 8 μM)	IC50 [1]	Cytokine production (C): corresponding % of mycolactone activity (in brackets) [1]	Metabolic activity (MA: mean absorbance) (A) % relative to control ([2]; 0.4 μM)	Metabolic activity (MA: mean absorbance) (A) % relative to control ([2]; 4 μM)	Metabolic activity (MA: mean absorbance) (A) % relative to control ([2]; 8 μM)	IC50 [2]	Metabolic activity (A): corresponding % of mycolactone activity (in brackets) [2]	CD62-L expression (MFI: mean fluorescence intensity) (D) % relative to control ([3]; 4 μM)	CD62-L expression (MFI: mean fluorescence intensity) (D) % relative to control ([3]; 8 μM)	CD62-L expression (D): corresponding % of mycolactone activity (in brackets) [3]	IC50 ([1]; Homo sapiens)	cytotoxicity compared to mycolactones A/B [4]	IC50 ([2]; Homo sapiens)	cytopathic activity, reduction compared to mycolactones A/B [2]	IC50 ([3]; T-cell)	cytotoxic activity compared to compound 20a [4]	cytopathic activity compared to compound 20a [2]	further results
2,2-difluoro-4,6,10,12-tetramethyl-8-(4-{1-[(2S)-2-[(2R,4E,7S,8S)-7-methyl-12-oxo-8-{[(2E,4E,6E,8E,10E,12S,13S,15S)-12,13,15-trihydroxy-4,6,10-trimethylhexadeca-2,4,6,8,10-pentaenoyl]oxy}-1-oxacyclododec-4-en-2-yl]propyl]-1H-1,2,3-triazol-4-yl}butyl)-1λ^5,3-diaza-2λ^4-boratricyclo[7.3.0.0^3,7]dodeca-1(12),4,6,8,10-pentaen-1-ylium [Compound 28]	20%	50%	70%	4 µM	2.5%	0%	20%	35%	> 16 µM	< 20%											
2,2-difluoro-8-(4-{1-[(2S)-2-[(2R,4E,7S,8S)-8-hydroxy-7-methyl-12-oxo-1-oxacyclododec-4-en-2-yl]propyl]-1H-1,2,3-triazol-4-yl}butyl)-4,6,10,12-tetramethyl-1λ^5,3-diaza-2λ^4-boratricyclo[7.3.0.0^3,7]dodeca-1(12),4,6,8,10-pentaen-1-ylium [Compound 29]	18%	70%	95%	3 µM	3.3%	0%	30%	40%	16 µM	20%	100%	100%	1.5%								IC50 [3]: 2 µM
CC(=C/C=C/C(C)=C/[C@H](O)[C@@H](O)C[C@H](C)O)C=C(C)/C=C/C(=O)O[C@H]1CCCC(=O)O[C@@H]([C@@H](C)C/C(C)=C/[C@@H](C)[C@H](O)C[C@@H](C)O)C/C=C/C[C@@H]1C (racemic) [Compound 20a, (6S,7S,9E,12R)-12-[(2S,4E,6R,7R,9R)-7,9-dihydroxy-4,6-dimethyldec-4-en-2-yl]-7-methyl-2-oxo-1-oxacyclododec-9-en-6-yl(2E,4E,6E,8E,10E,12S,13S,15S)-12,13,15-trihydroxy-4,6,10-trimethylhexadeca-2,4,6,8,10-pentaenoate]	0%	40%	70%		1.6%	0%	10%	30%		25%				6 µM	equivalent cytotoxicity	14 µM	4 fold				
CC(=C/C=C/C(C)=C/[C@H](O)[C@@H](O)C[C@@H](C)O)C=C(C)/C=C/C(=O)O[C@H]1CCCC(=O)O[C@@H]([C@@H](C)C/C(C)=C/[C@@H](C)[C@H](O)C[C@@H](C)O)C/C=C/C[C@@H]1C (racemic) [Compound 20b, (6S,7S,9E,12R)-12-[(2S,4E,6R,7R,9R)-7,9-dihydroxy-4,6-dimethyldec-4-en-2-yl]-7-methyl-2-oxo-1-oxacyclododec-9-en-6-yl(2E,4E,6E,8E,10E,12S,13S,15R)-12,13,15-trihydroxy-4,6,10-trimethylhexadeca-2,4,6,8,10-pentaenoate]	20%	55%	92%		2.5%	0%	10%	15%		23%	0%	50%	0.4%	4 µM	equivalent cytotoxicity	15 µM	4 fold	8 µM			
CC(=C/C=C/C(C)=C/[C@@H](O)[C@H](O)C[C@@H](C)O)C=C(C)/C=C/C(=O)O[C@H]1CCCC(=O)O[C@@H]([C@@H](C)C/C(C)=C/[C@@H](C)[C@H](O)C[C@@H](C)O)C/C=C/C[C@@H]1C (racemic) [Compound 20c, (6S,7S,9E,12R)-12-[(2 S,4E,6R,7R,9R)-7,9-dihydroxy-4,6-dimethyldec-4-en-2-yl]-7-methyl-2-oxo-1-oxacyclododec-9-en-6-yl(2E,4E,6E,8E,10E,12R,13R,15R)-12,13,15-trihydroxy-4,6,10-trimethylhexadeca-2,4,6,8,10-pentaenoate]	18%	35%	65%		1.5%	0%	20%	25%		< 20%	0%	10%	< 0.2%	6.5 µM		> 16 µM		> 16 µM	significantly reduced	significantly reduced	
CC(=C/C=C/C(C)=C/C[C@@H](O)CC(C)O)C=C(C)/C=C/C(=O)O[C@H]1CCCC(=O)O[C@@H]([C@@H](C)C/C(C)=C/[C@@H](C)[C@H](O)C[C@@H](C)O)C/C=C/C[C@@H]1C (stereo in doubt) [Compound 20d, (6S,7S,9E,12R)-12-[(2S,4E,6R,7R,9R)-7,9-dihydroxy-4,6-dimethyldec-4-en-2-yl]-7-methyl-2-oxo-1-oxacyclododec-9-en-6-yl(2E,4E,6E,8E,10E,13R,15R)-13,15-dihydroxy-4,6,10-trimethylhexadeca-2,4,6,8,10-pentaenoate]	12%	30%	55%		1.4%	0%	20%	25%		< 20%	0%	0%		7.3 µM		> 16 µM			significantly reduced	significantly reduced	
